What is called IC50 is the point on the concentration scale where inhibition reaches its midpoint. High values mean lower potency, low ones higher potency.

This passage reports IC50 results from patent US20060264460A1 (Wyeth, priority 2005, published 2006).

The target in one test is T1, human Cot/Tpl2 kinase (Homo sapiens, UniProt P41279).
T1 construct: human Cot/Tpl2 kinase construct encoding residues 30-398; 6His (N); made in house; host or cells: Sf9 insect cells, baculovirus system (BD Biosciences)
T1 sequence (P41279 30-398): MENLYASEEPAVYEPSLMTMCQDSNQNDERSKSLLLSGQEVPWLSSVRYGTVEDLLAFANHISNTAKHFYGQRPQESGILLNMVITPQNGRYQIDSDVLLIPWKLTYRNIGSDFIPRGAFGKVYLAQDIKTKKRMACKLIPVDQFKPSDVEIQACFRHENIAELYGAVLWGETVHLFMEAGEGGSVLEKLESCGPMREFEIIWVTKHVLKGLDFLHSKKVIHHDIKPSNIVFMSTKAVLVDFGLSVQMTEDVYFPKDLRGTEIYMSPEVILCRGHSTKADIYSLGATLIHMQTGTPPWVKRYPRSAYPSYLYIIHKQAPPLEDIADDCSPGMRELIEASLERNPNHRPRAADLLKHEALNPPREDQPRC
The test is described as follows: Tpl2/Cot kinase assay: GST-MEK1 phosphorylation detected by ELISA (DELFIA Eu). The conditions noted are these: 0.4 nM Tpl2, 35 nM GST-MEK1, 50 uM ATP, 1 h at 30° C. The test is classed as biochemical. Summed up: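 Substrate phosphorylation (GST-MEK1 Ser217/221) quantified by DELFIA europium ELISA, yielding IC50 values. Reaction: 1 h at 30° C, pH 7.2 MOPS buffer, 50 uM ATP, 35 nM GST-MEK1, 0.4 nM monomeric His-Tpl2 purified from Sf9 cells, compounds at 1% final DMSO; stopped with EDTA.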
For orientation: In an ELISA, binding on a coated surface is turned into a signal by an enzyme label.
The compound `N#Cc1cnc2c(Br)cc(NCc3cn(CCN)nn3)cc2c1Nc1ccc(F)c(Cl)c1` [Example 304, 6-{[1-(2-Amino-ethyl)-1H-[1,2,3]triazol-4-ylmethyl]-amino}-8-bromo-4-(3-chloro-4-fluoro-phenylamino)-quinoline-3-carbonitrile] displayed an IC50 of 17 nM.

Take `CN1CCCC1CCn1cc(CNc2cc(Br)c3ncc(C#N)c(Nc4ccc(F)c(Cl)c4)c3c2)nn1` (stereo not drawn) [Example 305, 8-Bromo-4-(3-chloro-4-fluoro-phenylamino)-6-({1-[2-(1-methyl-pyrrolidin-2-yl)-ethyl]-1H-[1,2,3]triazol-4-ylmethyl}-amino)-quinoline-3-carbonitrile]: the IC50 is 25 nM.

In turn, `N#Cc1cnc2c(Br)cc(NCc3cn(CCN4CCCCCC4)nn3)cc2c1Nc1ccc(F)c(Cl)c1` [Example 307, 6-{[1-(2-Azepan-1-yl-ethyl)-1H-[1,2,3]triazol-4-ylmethyl]-amino}-8-bromo-4-(3-chloro-4-fluoro-phenylamino)-quinoline-3-carbonitrile] registered an IC50 of 61 nM.

For `N#Cc1cnc2c(Br)cc(NCc3cn(CCN4CCCC4)nn3)cc2c1Nc1ccc(F)c(Cl)c1` [Example 308, 8-Bromo-4-(3-chloro-4-fluoro-phenylamino)-6-{[1-(2-pyrrolidin-1-yl-ethyl)-1H-[1,2,3]triazol-4-ylmethyl]-amino}-quinoline-3-carbonitrile], the IC50 turned out to be 28 nM.

The compound `N#Cc1cnc2c(CCC(=O)CO)cc(N)cc2c1Nc1ccc(F)c(Cl)c1` [Example 309, 6-amino-4-[(3-chloro-4-fluorophenyl)amino]-8-(4-hydroxy-3-oxobutyl)quinoline-3-carbonitrile] registered an IC50 of 7100 nM.

For the compound `N#Cc1cnc2c(CCC(=O)CO)cc(NCc3cnc[nH]3)cc2c1Nc1ccc(F)c(Cl)c1` [Example 310, 4-[(3-chloro-4-fluorophenyl)amino]-8-(4-hydroxy-3-oxybutyl)-6-[(1H-imidazol-5-ylmethyl)amino]quinoline-3-carbonitrile], the IC50 worked out at 150 nM.

Compound `N#Cc1cnc2c(Br)cc(NCc3[nH]nnc3-c3ccccc3)cc2c1Nc1ccc(F)c(Cl)c1` [Example 311, 8-bromo-4-[(3-chloro-4-fluorophenyl)amino]-6-{[(4-phenyl-1H-1,2,3-triazol-5-yl)methyl]amino}quinoline-3-carbonitrile] gave an IC50 of 12 nM.

Consider `CCOC(=O)/C=C/c1cc(NCc2cnc[nH]2)cc2c(Nc3ccc(F)c(Cl)c3)c(C#N)cnc12` [Example 312, Ethyl(2E)-3-{4-[(3-chloro-4-fluorophenyl)amino]-3-cyano-6-[(1H-imidazol-5-ylmethyl)amino]quinolin-8-yl}acrylate], for which the IC50 was 9700 nM.

For the compound `N#Cc1cnc2c(CC(O)CO)cc(NCc3cnc[nH]3)cc2c1Nc1ccc(F)c(Cl)c1` (stereo not drawn) [Example 314, 4-[(3-chloro-4-fluorophenyl)amino]-8-(2,3-dihydroxypropyl)-6-[(1H-imidazol-5-ylmethyl)amino]quinoline-3-carbonitrile], the IC50 came to 910 nM.

In turn, `N#Cc1cnc2c(Br)cc(NCc3cn(C4CCNCC4)nn3)cc2c1Nc1ccc(F)c(Cl)c1` [Example 316, 8-bromo-4-[(3-chloro-4-fluorophenyl)amino]-6-{[(1-piperidin-4-yl-1H-1,2,3-triazol-4-yl)methyl]amino}quinoline-3-carbonitrile] showed an IC50 of 10 nM.

The compound `CN1CCC(n2cc(CNc3cc(Br)c4ncc(C#N)c(Nc5ccc(F)c(Cl)c5)c4c3)nn2)CC1` [Example 317, 8-bromo-4-[(3-chloro-4-fluorophenyl)amino]-6-({[1-(1-methylpiperidin-4-yl)-1H-1,2,3-triazol-4-yl]methyl}amino)quinoline-3-carbonitrile] returned an IC50 of 19 nM. This IC50 is about 1.9-fold higher than that of the compound before.

Compound `CC(O)Cc1nn[nH]c1CNc1cc(Br)c2ncc(C#N)c(Nc3ccc(F)c(Cl)c3)c2c1` (stereo not drawn) [Example 318, 8-bromo-4-(3-chloro-4-fluorophenylamino)-6-((5-(2-hydroxypropyl)-3H-1,2,3-triazol-4-yl)methylamino)quinoline-3-carbonitrile] gave an IC50 of 5.7 nM.

`N#Cc1cnc2c(Br)cc(NCc3cn(CC(O)CN4CCOCC4)nn3)cc2c1Nc1ccc(F)c(Cl)c1` (stereo not drawn) [Example 319, 8-bromo-4-[(3-chloro-4-fluorophenyl)amino]-6-({[1-(2-hydroxy-3-morpholin-4-ylpropyl)-1H-1,2,3-triazol-4-yl]methyl}amino)quinoline-3-carbonitrile]: the IC50 came to 210 nM. This IC50 is about 37-fold higher than that of the compound before.

`N#Cc1cnc2c(Cl)cc(NCc3cn(CC(=O)NCc4ccccn4)nn3)cc2c1Nc1ccc(F)c(Cl)c1` [Example 320, 2-(4-((8-chloro-4-(3-chloro-4-fluorophenylamino)-3-cyanoquinolin-6-ylamino)methyl)-1H-1,2,3-triazol-1-yl)-N-(pyridin-2-ylmethyl)acetamide] showed an IC50 of 5.6 nM. This IC50 lies about 38-fold lower than the previous one.

For `CN(Cc1cn(CCC2CCCN2C)nn1)c1cc(Cl)c2ncc(C#N)c(Nc3ccc(F)c(Cl)c3)c2c1` (stereo not drawn) [Example 321, 8-chloro-4-(3-chloro-4-fluorophenylamino)-6-(methyl((1-(2-(1-methylpyrrolidin-2-yl)ethyl)-1H-1,2,3-triazol-4-yl)methyl)amino)quinoline-3-carbonitrile], the midpoint of inhibition, the IC50, lay at 490 nM.

As to `CC(C)(C)OC(=O)N1CCC(CNc2cc(Cl)c3ncc(C#N)c(Nc4ccc(F)c(Cl)c4)c3c2)CC1` [Example 322, tert-butyl 4-((8-chloro-4-(3-chloro-4-fluorophenylamino)-3-cyanoquinolin-6-ylamino)methyl)piperidine-1-carboxylate], half-maximal inhibition (IC50) was put at 2120 nM.

On to `N#Cc1cnc2c(Cl)cc(NCC3CCN(Cc4cccnc4)CC3)cc2c1Nc1ccc(F)c(Cl)c1` [Example 323, 8-chloro-4-(3-chloro-4-fluorophenylamino)-6-((1-(pyridin-3-ylmethyl)piperidin-4-yl)methylamino)quinoline-3-carbonitrile], for which 1360 nM corresponded to half-maximal inhibition (IC50).

In turn, `CN1CCC[C@H]1CCn1cc(CNc2cc(Br)c3ncc(C#N)c(Nc4ccc(F)c(Cl)c4)c3c2)nn1` [Example 324, (S)-8-bromo-4-(3-chloro-4-fluorophenylamino)-6-((1-(2-(1-methylpyrrolidin-2-yl)ethyl)-1H-1,2,3-triazol-4-yl)methylamino)quinoline-3-carbonitrile] gave an IC50 of 50 nM. This IC50 lies about 27-fold lower than the previous one.

`CS(=O)(=O)NCCNc1cc(Cl)c2ncc(C#N)c(Nc3ccc(F)c(Cl)c3)c2c1` [Example 326, N-[2-({8-chloro-4-[(3-chloro-4-fluorophenyl)amino]-3-cyanoquinolin-6-yl}amino)ethyl]methanesulfonamide] had an IC50 of 70 nM.

In turn, `CN1CCCC(n2cc(CNc3cc(Cl)c4ncc(C#N)c(Nc5ccc(F)c(Cl)c5)c4c3)nn2)CC1` (stereo not drawn) [Example 329, 8-chloro-4-[(3-chloro-4-fluorophenyl)amino]-6-({[1-(1-methylazepan-4-yl)-1H-1,2,3-triazol-4-yl]methyl}amino)quinoline-3-carbonitrile] registered an IC50 of 4.4 nM.

`CCN1CCCC(n2cc(CNc3cc(Cl)c4ncc(C#N)c(Nc5ccc(F)c(Cl)c5)c4c3)nn2)CC1` (stereo not drawn) [Example 330, 8-chloro-4-[(3-chloro-4-fluorophenyl)amino]-6-({[1-(1-ethylazepan-4-yl)-1H-1,2,3-triazol-4-yl]methyl}amino)quinoline-3-carbonitrile] registered an IC50 of 8.5 nM.

`CC(C)N1CCCC(n2cc(CNc3cc(Cl)c4ncc(C#N)c(Nc5ccc(F)c(Cl)c5)c4c3)nn2)CC1` (stereo not drawn) [Example 331, 8-chloro-4-[(3-chloro-4-fluorophenyl)amino]-6-({[1-(1-isopropylazepan-4-yl)-1H-1,2,3-triazol-4-yl]methyl}amino)quinoline-3-carbonitrile] yielded an IC50 of 8.2 nM.

In turn, `N#Cc1cnc2c(Cl)cc(NCc3cn(C4CCC5(CC4)OCCO5)nn3)cc2c1Nc1ccc(F)c(Cl)c1` [Example 332, 8-chloro-4-[(3-chloro-4-fluorophenyl)amino]-6-({[1-(1,4-dioxaspiro[4.5]dec-8-yl)-1H-1,2,3-triazol-4-yl]methyl}amino)quinoline-3-carbonitrile] displayed an IC50 of 39 nM.

The compound `N#Cc1cnc2c(Cl)cc(NCc3cn(C4CCC(=O)CC4)nn3)cc2c1Nc1ccc(F)c(Cl)c1` [Example 333, 8-chloro-4-[(3-chloro-4-fluorophenyl)amino]-6-({[1-(4-oxocyclohexyl)-1H-1,2,3-triazol-4-yl]methyl}amino)quinoline-3-carbonitrile] registered an IC50 of 1.1 nM. Compared with the last compound, the IC50 is about 35-fold lower.

Consider `N#Cc1cnc2c(Cl)cc(NCc3cn(C4CCC(O)(c5ccccn5)CC4)nn3)cc2c1Nc1ccc(F)c(Cl)c1` (stereo not drawn) [Example 335, 8-chloro-4-[(3-chloro-4-fluorophenyl)amino]-6-({[1-(4-hydroxy-4-pyridin-2-ylcyclohexyl)-1H-1,2,3-triazol-4-yl]methyl}amino)quinoline-3-carbonitrile], for which the IC50 turned out to be 20 nM. This IC50 is about 18-fold higher than that of the compound before.

Staying with this test, now noted: Table 2; Tpl2/Cot kinase, GST-MEK1 substrate, 50 uM ATP.
As for `N#Cc1cnc2ccc(Br)cc2c1Nc1ccc(Oc2ccccc2)cc1` [Example 336], the IC50 amounted to 1000 nM.

In turn, `N#Cc1cnc2ccc(NCCN3CCOCC3)cc2c1Nc1ccc(F)c(Cl)c1` [Example 337] had an IC50 of 1000 nM.

Consider `N#Cc1cnc2ccc(NCCN3CCOCC3)cc2c1Nc1ccc(Oc2ccccc2)cc1` [Example 338], for which the IC50 turned out to be 150 nM.

Turning to `COc1ccc(CNc2ccc3ncc(C#N)c(Nc4ccc(F)c(F)c4)c3c2)cn1` [Example 340], the IC50 is 440 nM.

Compound `N#Cc1cnc2ccc(NCc3ccc(=O)[nH]c3)cc2c1Nc1ccc(F)c(F)c1` [Example 341] yielded an IC50 of 400 nM. This IC50 and that of the compound before are within 1.5-fold of each other.

As for `N#Cc1cnc2ccc(NCCN3CCOCC3)cc2c1Nc1cccc(C(F)(F)F)c1` [Example 342], the IC50 was above 10000 nM.

`Cn1cc(CNc2ccc3ncc(C#N)c(Nc4ccc(F)c(F)c4)c3c2)ccc1=O` [Example 343] showed an IC50 of 1040 nM.

`N#Cc1cnc2ccc(NCc3ccc(OCCN4CCOCC4)nc3)cc2c1Nc1ccc(F)c(F)c1` [Example 344] returned an IC50 of 1480 nM.
